Reference: patent US20230391760A1, “HETEROCYCLIC GLP-1 AGONISTS” (Gasherbrum Bio, Inc., priority 2020, published 2023)

Molecular target: GLP-1 Receptor (Homo sapiens, UniProt P43220)
Test: GLP-1R agonist cAMP stimulation assay (HEK293/GLP1R/CRE-LUC cells, cAMP dynamic 2 Kit)
Format: cell-based
Details: HEK293/CRE-Luc cell line stably expressing the GLP-1 Receptor, 30 min at 37° C.
Summary of the method: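 HEK293 cells stably expressing human GLP-1R with CRE-luciferase, 1000 cells/well in DPBS with 0.5 mM IBMX and 0.1% BSA, treated with compound in 1/2-log serial dilution for 30 min at 37 °C. cAMP then detected by HTRF (cAMP-d2 plus anti-cAMP cryptate), 1 h at room temperature in the dark.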

GLP-1 Receptor, sequence (P43220 24-463, species assumed): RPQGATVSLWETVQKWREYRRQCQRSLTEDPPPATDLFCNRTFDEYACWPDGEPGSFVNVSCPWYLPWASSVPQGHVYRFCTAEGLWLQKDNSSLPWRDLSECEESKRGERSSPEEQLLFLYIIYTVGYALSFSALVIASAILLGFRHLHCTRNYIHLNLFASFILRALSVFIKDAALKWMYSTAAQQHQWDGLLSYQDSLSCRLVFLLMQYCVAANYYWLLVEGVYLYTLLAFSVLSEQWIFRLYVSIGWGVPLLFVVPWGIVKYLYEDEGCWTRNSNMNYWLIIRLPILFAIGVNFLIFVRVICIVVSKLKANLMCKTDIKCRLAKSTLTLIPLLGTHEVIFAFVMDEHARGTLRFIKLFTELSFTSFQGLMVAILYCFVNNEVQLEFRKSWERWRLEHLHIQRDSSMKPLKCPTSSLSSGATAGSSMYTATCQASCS

C[C@H]1CN(c2cccc(OCc3ccc(Cl)cc3F)n2)CCN1Cc1nc2cc(-c3nnc(C(F)(F)F)[nH]3)ncc2n1C[C@@H]1CCO1 [Compound 480a, (2S)-4-{6-[(4-chloro-2-fluorophenyl)methoxy]pyridin-2-yl}-2-methyl-1-[(3-{[(2S)-oxetan-2-yl]methyl}-6-[5-(trifluoromethyl)-4H-1,2,4-triazol-3-yl]-3H-imidazo[4,5-c]pyridin-2-yl)methyl]piperazine]
EC50: 0.018 nM

C[C@]1(c2ccc(Cl)cc2F)Oc2cccc(C3CCN(Cc4nc5cc(-c6nnc(C#N)[nH]6)ncc5n4C[C@@H]4CCO4)CC3)c2O1 [Compound 444a, 5-[2-({4-[(2S)-2-(4-chloro-2-fluorophenyl)-2-methyl-2H-1,3-benzodioxol-4-yl]piperidin-1-yl}methyl)-3-{[(2S)-oxetan-2-yl]methyl}-3H-imidazo[4,5-c]pyridin-6-yl]-4H-1,2,4-triazole-3-carbonitrile]
EC50: 0.0037 nM

CC1(c2ccc(Cl)cc2F)Oc2cccc(C3CCN(Cc4nc5cc(-c6nnc(C(F)F)[nH]6)c(F)cc5n4C[C@@H]4CCO4)CC3)c2O1 (stereo partly drawn) [Compound 249a, 2-({4-[2-(4-chloro-2-fluorophenyl)-2-methyl-2H-1,3-benzodioxol-4-yl]piperidin-1-yl}methyl)-5-[5-(difluoromethyl)-4H-1,2,4-triazol-3-yl]-6-fluoro-1-{[(2S)-oxetan-2-yl]methyl}-1H-1,3-benzodiazole]
EC50: 0.27 nM

CO[C@@H](C)Cn1c(CN2CCC(c3cccc4c3O[C@@](C)(c3ccc(C#N)cc3F)O4)CC2)nc2cc(-c3nnc(C(F)(F)F)[nH]3)ncc21 [Compound 454a, 3-fluoro-4-[(2S)-4-[1-({3-[(2S)-2-methoxypropyl]-6-[5-(trifluoromethyl)-4H-1,2,4-triazol-3-yl]-3H-imidazo[4,5-c]pyridin-2-yl}methyl)piperidin-4-yl]-2-methyl-2H-1,3-benzodioxol-2-yl]benzonitrile]
EC50: 0.17 nM

Fc1cc(Cl)ccc1COc1nc(C2CCN(Cc3nc4cc(-c5nnc(C(F)(F)F)[nH]5)ncc4n3C[C@@H]3CCO3)CC2)ncc1F [Compound 491a, 4-[(4-chloro-2-fluorophenyl)methoxy]-5-fluoro-2-{1-[(3-{[(2S)-oxetan-2-yl]methyl}-6-[5-(trifluoromethyl)-4H-1,2,4-triazol-3-yl]-3H-imidazo[4,5-c]pyridin-2-yl)methyl]piperidin-4-yl}pyrimidine]
EC50: 0.057 nM

O=C(Nc1ccc2c(c1)nc(CN1CCC(c3cccc(OCc4ccc(Cl)cc4F)n3)CC1)n2C[C@@H]1CCO1)c1ccccn1 [Compound 170a, N-{2-[(4-{6-[(4-chloro-2-fluorophenyl)methoxy]pyridin-2-yl}piperidin-1-yl)methyl]-1-{[(2S)-oxetan-2-yl]methyl}-1H-1,3-benzodiazol-5-yl}pyridine-2-carboxamide]
EC50: 0.14 nM

COCCOc1ccc(C(=O)Nc2ccc3c(c2)nc(CN2CCC(c4cccc(OCc5ccc(Cl)cc5F)n4)CC2)n3C[C@@H]2CCO2)cn1 [Compound 177a, N-{2-[(4-{6-[(4-chloro-2-fluorophenyl)methoxy]pyridin-2-yl}piperidin-1-yl)methyl]-1-{[(2S)-oxetan-2-yl]methyl}-1H-1,3-benzodiazol-5-yl}-6-(2-methoxyethoxy)pyridine-3-carboxamide]
EC50: 5.9 nM

O=C(Nc1ccc2c(c1)nc(CN1CCC(c3cccc(OCc4ccc(Cl)cc4F)n3)CC1)n2C[C@@H]1CCO1)C1CCCCO1 (stereo partly drawn) [Compound 155a, N-{2-[(4-{6-[(4-chloro-2-fluorophenyl)methoxy]pyridin-2-yl}piperidin-1-yl)methyl]-1-{[(2S)-oxetan-2-yl]methyl}-1H-1,3-benzodiazol-5-yl}oxane-2-carboxamide]
EC50: 1 nM

CC1(c2ccc(F)cc2Cl)Oc2cccc(C3CCN(Cc4nc5cc(-c6nnc(C(F)(F)F)[nH]6)ccc5n4C[C@@H]4CCO4)CC3)c2O1 (stereo partly drawn) [Compound 404a, 2-({4-[2-(2-chloro-4-fluorophenyl)-2-methyl-2H-1,3-benzodioxol-4-yl]piperidin-1-yl}methyl)-1-{[(2S)-oxetan-2-yl]methyl}-5-[5-(trifluoromethyl)-4H-1,2,4-triazol-3-yl]-1H-1,3-benzodiazole]
EC50: 0.045 nM
